Assay results taken from patent US10660333B2, “Substituted 2-heterocyclylimidazolylcarboxamides as pesticides” (BAYER CROPSCIENCE AKTIENGESELLSCHAFT, priority 2016, dated 2020).
Where two headings read alike, the source gives them in different places.

Columns and labels:
Myzus persicae [1] = assay: Myzus persicae - spray test (MYZUPE S), bell pepper plants; assay type: in vivo; conditions: 6 dat; for Emax at 0.16 ppm / Emax at 0.8 ppm: Myzus persicae, 144 h, read-out: % efficacy
Description: Myzus persicae—Spray Test (MYZUPE S)
(§1) To produce a suitable active ingredient formulation, 1 part by weight of active ingredient is dissolved with the specified parts by weight of solvent and made up to the desired concentration with water containing an emulsifier concentration of 1000 ppm. To produce further test concentrations, the formulation is diluted with emulsifier-containing water. If the addition of ammonium salts or/and penetrants is required, these are each added in a concentration of 1000 ppm to the formulation solution.
Bell pepper plants (Capsicum annuum) severely infested with the green peach aphid (Myzus persicae) are treated by spraying with the active ingredient formulation in the desired concentration.
After the desired time, the kill in % is determined. 100% means that all the animals have been killed; 0% means that no animals have been killed.

Myzus persicae [2] = assay: Myzus persicae - drench test (MYZUPE D), savoy cabbage; assay type: in vivo; conditions: 10 dat; for Emax at 0.16 ppm / Emax at 0.8 ppm: Myzus persicae, soil, 240 h, read-out: % efficacy
Description: Myzus persicae—Drench Test (MYZUPE D)
To produce a suitable active ingredient formulation, 1 part by weight of active ingredient is mixed with the specified amounts of solvent and emulsifier, and the concentrate is diluted with water to the desired concentration, it being necessary to include the volume of soil which is drenched in the calculation. It should be ensured that a concentration of 40 ppm of emulsifier in the soil is not exceeded. To produce further test concentrations, water is used for dilution.
Savoy cabbage (Brassica oleracea) in pots with soil and infested by all stages of the green peach aphid (Myzus persicae) is watered with an active ingredient formulation of the desired concentration.
(§2) After the desired period of time, the efficacy in % is determined. 100% means that all the aphids have been killed; 0% means that no aphids have been killed.

Aphis gossypii = Aphis gossypii - spray test (APHIGO S), cotton plants; assay type: in vivo; conditions: 144 h, 6 dat, read-out: % efficacy
Description: Aphis gossypii—Spray Test (APHIGO S)
as §1
Cotton plants (Gossypium hirsutum) heavily infested by the cotton aphid (Aphis gossypii) are sprayed with an active ingredient formulation of the desired concentration.
After the desired time, the kill in % is determined. 100% means that all the aphids have been killed; 0% means that no aphids have been killed.

[3] = log P by HPLC on reversed-phase (C18) columns, OECD Guideline 117; assay type: physicochemical; conditions: for chromatographic logP: reversed-phase (C18) HPLC column
Myzus persicae [4] = assay: Myzus persicae - spray test; assay type: in vivo; conditions: 500 g/ha, Chinese cabbage leaf discs, after 5 days; for pest or weed control at 500 g/ha: Myzus persicae, foliar, 120 h, read-out: efficacy (aphids killed)
Description: Myzus persicae—Spray Test
as §1, with “water.” for “water. If the addition of ammonium salts or/and penetrants is required, these are each added in a concentration of 1000 ppm to the formulation solution.”
(§3) Discs of Chinese cabbage leaves (Brassica pekinensis) infested by all stages of the green peach aphid (Myzus persicae) are sprayed with an active ingredient formulation of the desired concentration.
(§4) After 5 days, the efficacy in % is determined. 100% means that all the aphids have been killed; 0% means that no aphids have been killed.

Myzus persicae [5] = assay: Myzus persicae - oral test; assay type: in vivo; conditions: 4 ppm, oral, after 5 days; for pest or weed control at 4 ppm: Myzus persicae, 120 h, read-out: efficacy (aphids killed)
Description: (§5) To produce a suitable active ingredient formulation, 1 part by weight of active ingredient is dissolved with the specified parts by weight of solvent and made up to the desired concentration with water.
(§6) 50 μl of the active ingredient formulation are transferred into microtitre plates and made up to a final volume of 200 μl with 150 μl of IPL41 insect medium (33%+15% sugar). Subsequently, the plates are sealed with parafilm, which a mixed population of green peach aphids (Myzus persicae) within a second microtitre plate is able to puncture and imbibe the solution.
as §4

Myzus persicae [6] = assay: Myzus persicae - spray test (MYZUPE), comparison with prior art; assay type: in vivo; conditions: for Emax at 4 g/ha / Emax at 20 g/ha / Emax at 100 g/ha / Emax at 500 g/ha: Myzus persicae, read-out: % efficacy
Description: Myzus persicae—Spray Test (MYZUPE)
as §1, with “water.” for “water. If the addition of ammonium salts or/and penetrants is required, these are each added in a concentration of 1000 ppm to the formulation solution.”
as §3, §2

Myzus persicae [7] = assay: Myzus persicae - oral test (MYZUPE O), comparison with prior art; assay type: in vivo; conditions: 5 dat; for Emax at 0.8 ppm / Emax at 4 ppm: Myzus persicae, po, 120 h, read-out: % efficacy
Description: Myzus persicae—Oral Test (MYZUPE O)
as §5, §6, §2

[8] = HPLC RP C18, acidic range pH 2.7, 0.1% formic acid/acetonitrile, read-out: logP[a]
[9] = HPLC RP C18, neutral range pH 7.8, ammonium hydrogencarbonate/acetonitrile, read-out: logP[n]
[10] = 120 h, 4 g/ha (g of ai/ha), 5 dat
[11] = 120 h, 20 g/ha (g of ai/ha), 5 dat
[12] = 120 h, 100 g/ha (g of ai/ha), 5 dat
[13] = HPLC RP C18, acidic range pH 2.7, 0.1% formic acid/acetonitrile
[14] = HPLC RP C18, neutral range pH 7.8, ammonium hydrogencarbonate/acetonitrile

Row | Compound | Emax at 0.16 ppm (Myzus persicae [1]; 0.16 ppm) [%] | Emax at 0.16 ppm (Myzus persicae [2]; 0.16 ppm) [%] | Emax at 0.16 ppm (Aphis gossypii) [%] | Emax at 0.8 ppm (Aphis gossypii) [%] | Emax at 20 g/ha (Myzus persicae [6]; [11]) [%] | Emax at 100 g/ha (Myzus persicae [6]; [12]) [%] | Emax at 500 g/ha (Myzus persicae [6]; 120 h, 500 g/ha, 5 dat) [%] | Emax at 0.8 ppm (Myzus persicae [7]; 0.8 ppm) [%] | Emax at 4 ppm (Myzus persicae [7]; 4 ppm) [%] | Emax at 0.8 ppm (Myzus persicae [1]; 0.8 ppm) [%] | Emax at 0.8 ppm (Myzus persicae [2]; 0.8 ppm) [%] | other results
1 | CCc1ncc(C(=O)N(C)c2cccnc2)n1C [reference compound] | 0 | 0 | 0 | 0 | – | – | – | – | – | – | – | –
2 | CC1=NOC(c2ncc(C(=O)N(C)c3cccnc3)n2C)C1 (centres unmarked) [Example I-1-1] | 100 | 100 | 100 | 100 | 70 | 70 | 100 | 100 | 100 | 95 | 100 | chromatographic logP [3, 8]: 0.27; chromatographic logP [3, 9]: 0.76; pest or weed control at 500 g/ha (Myzus persicae [4]): 100%; pest or weed control at 4 ppm (Myzus persicae [5]): 100%; Emax at 4 g/ha (Myzus persicae [6]; [10]): 70%
3 | CN(C(=O)c1cnc(C2CC=NO2)n1C)c1cccnc1 (centres unmarked) [Example I-1-30] | 95 | 95 | – | 80 | 70 | 70 | 90 | 100 | 90 | 100 | 95 | chromatographic logP [3, 8]: 0.1; chromatographic logP [3, 9]: 0.57; pest or weed control at 500 g/ha (Myzus persicae [4]): 90%; pest or weed control at 4 ppm (Myzus persicae [5]): 90%
4 | Cc1ncc(C(=O)N(C)c2cccnc2)n1C [reference compound] | 0 | 30 | 0 | 0 | – | – | – | – | – | – | – | –
5 | CCOC(=O)c1cc(-c2ncc(C(=O)N(C)c3cccnc3)n2C)on1 [reference compound] | – | – | – | – | 0 | 0 | 0 | 0 | 0 | – | – | Emax at 4 g/ha (Myzus persicae [6]; [10]): 0%
6 | CN(C(=O)c1cnc(C2CC(c3ccc(C(F)(F)F)cn3)=NO2)n1C)c1cccnc1 (centres unmarked) [Example I-1-36] | 90 | 70 | – | 97 | 90 | 90 | 100 | 100 | 100 | 99 | 80 | chromatographic logP [3, 8]: 1.84; chromatographic logP [3, 9]: 1.97; pest or weed control at 500 g/ha (Myzus persicae [4]): 100%; pest or weed control at 4 ppm (Myzus persicae [5]): 100%; Emax at 4 g/ha (Myzus persicae [6]; [10]): 100%
7 | CN(C(=O)c1cnc(C2CC2)n1C)c1cccnc1 [reference compound] | 5 | – | 10 | 30 | – | – | – | – | – | – | – | –
8 | CN(C(=O)c1cnc(-c2cc(-c3ccccc3)no2)n1C)c1cccnc1 [reference compound] | 0 | 0 | 0 | 0 | – | – | – | – | – | 0 | 0 | Emax at 4 g/ha (Myzus persicae [6]; 144 h, 4 g/ha, 6 dat): 0%; Emax at 20 g/ha (Myzus persicae [6]; 144 h, 20 g/ha, 6 dat): 0%
9 | CN(C(=O)c1cnc(C2CC(c3ccccn3)=NO2)n1C)c1cccnc1 (centres unmarked) [Example I-1-26] | 100 | 95 | – | 100 | 90 | 90 | 90 | 100 | 100 | 100 | 98 | chromatographic logP [3, 8]: 1.01; chromatographic logP [3, 9]: 1.27; pest or weed control at 500 g/ha (Myzus persicae [4]): 90%; pest or weed control at 4 ppm (Myzus persicae [5]): 100%
10 | CC(C)C1=NOC(c2ncc(C(=O)N(C)c3cccnc3)n2C)C1 (centres unmarked) [Example I-1-3] | 99 | 95 | 70 | 100 | 70 | 90 | 100 | 100 | 100 | 100 | 100 | chromatographic logP [3, 8]: 1.08; chromatographic logP [3, 9]: 1.34; pest or weed control at 500 g/ha (Myzus persicae [4]): 100%; pest or weed control at 4 ppm (Myzus persicae [5]): 100%
11 | CN(C(=O)c1cnc(C2CC(c3ccc(F)cc3)=NO2)n1C)c1cccnc1 (centres unmarked) [Example I-1-22] | – | – | – | – | – | – | – | – | – | – | – | logP[a] ([3]; pH 2.7): 1.55; logP[n] ([3]; pH 7.8): 1.82; efficacy (aphids killed) (Myzus persicae [4]): 100%; efficacy (aphids killed) (Myzus persicae [5]): 100%; % efficacy (Myzus persicae [6]; 4 g/ha (g of ai/ha), 5 dat): 90%; % efficacy (Myzus persicae [6]; 20 g/ha (g of ai/ha), 5 dat): 100%; % efficacy (Myzus persicae [6]; 100 g/ha (g of ai/ha), 5 dat): 100%; % efficacy (Myzus persicae [6]; 500 g/ha, 5 dat): 100%; % efficacy (Myzus persicae [7]; 0.8 ppm): 90%; % efficacy (Myzus persicae [7]; 4 ppm): 100%; % efficacy (Myzus persicae [1]; 0.16 ppm): 90%; % efficacy (Myzus persicae [1]; 0.8 ppm): 99%; % efficacy (Myzus persicae [2]; 0.16 ppm): 90%; % efficacy (Myzus persicae [2]; 0.8 ppm): 95%
12 | O=C(Nc1cccnc1)c1c[nH]cn1 [WO 2011/009804 (Ex. 13), reference compound] | – | – | – | – | – | – | – | 0 | 0 | – | – | Emax at 4 g/ha (Myzus persicae [6]; 144 h, 4 g/ha, 6 dat): 0%; Emax at 20 g/ha (Myzus persicae [6]; 144 h, 20 g/ha, 6 dat): 0%; Emax at 100 g/ha (Myzus persicae [6]; 144 h, 100 g/ha, 6 dat): 0%
13 | Cc1ncc(C(=O)Nc2cccnc2)n1C [reference compound] | 0 | 0 | 0 | 0 | 0 | – | – | – | – | 30 | 0 | Emax at 4 g/ha (Myzus persicae [6]; [10]): 0%
14 | Cc1nc(C(=O)Nc2cccnc2)c[nH]1 [WO 2011/009804 (Ex. 14), reference compound] | – | – | – | – | 0 | 0 | – | 0 | 0 | – | – | Emax at 4 g/ha (Myzus persicae [6]; [10]): 0%
15 | CC1=NOC(C)(c2ncc(C(=O)N(C)c3cccnc3)n2C)C1 (centres unmarked) [Example I-1-31] | – | – | – | – | – | – | – | – | – | – | – | logP[a] [3, 13]: 0.53; logP[n] [3, 14]: 0.96; efficacy (aphids killed) (Myzus persicae [4]): 90%; efficacy (aphids killed) (Myzus persicae [5]): 90%
16 | CN(C(=O)c1cnc(C2CC(c3ccc(Cl)cc3Cl)=NO2)n1C)c1cccnc1 (centres unmarked) [Example I-1-13] | – | – | – | – | – | – | – | – | – | – | – | logP[a] [3, 13]: 2.23; logP[n] [3, 14]: 2.41; efficacy (aphids killed) (Myzus persicae [4]): 100%; efficacy (aphids killed) (Myzus persicae [5]): 100%
17 | Cc1ccc(C2=NOC(c3ncc(C(=O)N(C)c4cccnc4)n3C)C2)cc1 (centres unmarked) [Example I-1-21] | – | – | – | – | – | – | – | – | – | – | – | logP[a] [3, 13]: 1.75; logP[n] [3, 14]: 1.95; efficacy (aphids killed) (Myzus persicae [4]): 100%; efficacy (aphids killed) (Myzus persicae [5]): 100%
